Experiments:
Type in all cases: cell-based
Human LPA1 [1] = target: T1, Human LPA1 (Homo sapiens, UniProt Q92633); assay: Beta-Arrestin based assay for human LPA1R antagonists (PathHunter); parameters: host or cells: CHO; conditions: CHO cells stably expressing ProLink tagged human LPA1R; agonist LPA 0.5 micromolar
Procedure, shortened: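 CHO cells stably expressing ProLink-tagged human LPA1R with β-arrestin–EA fusion, assayed by β-galactosidase complementation. Antagonists tested against 0.5 micromolar LPA ([…]), in quadruplicate. End-point luminescence fitted to a 4-parameter logistic to give IC50.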

Human LPA1 [2] = target: T1, Human LPA1; assay: LPA1 calcium flux assay; parameters: the full-length cDNA for human LPA1 is obtained by PCR of the reverse transcription reaction; expressed in transfected cells; host or cells: CHO; conditions: human LPA1 expressing CHO cells; stimulated with 10 nM LPA; read-out: Ca Flux LPA1 IC50
Experimental: Establishment of a CHO Cell Line Stably Expressing Human LPA1
A 1.1 kb cDNA encoding the human LPA1 receptor is cloned from human lung. Human lung RNA (Clontech Laboratories, Inc. USA) is reverse transcribed using the RETROscript kit (Ambion, Inc.) and the full-length cDNA for human LPA1 is obtained by PCR of the reverse transcription reaction. The nucleotide sequence of the cloned human LPA1 is determined by sequencing and is confirmed to be identical to the published human LPA1 sequence (An et al. Biochem. Biophys. Res. Commun. 231:619 (1997). The cDNA is cloned into the pcDNA5 pcDNA5/FRT expression plasmid and is transfected in CHO cells using lipofectamine 2000 (Invitrogen Corp., USA). Clones stably expressing human LPA1 are selected using hygromycin and identified as cells that show Ca-influx in response to LPA.
(§1) LPA1 and LPA3 Calcium Flux Assays
(§2) Human LPA1 or LPA3 expressing CHO cells were seeded at 20,000-45,000 cells per well in a 96-well poly-D-lysine coated plate one or two days before the assay. Prior to the assay, the cells were washed once with PBS and then cultured in serum-free media overnight. On the day of the assay, a calcium indicator dye (Calcium 4, Molecular Devices) in assay buffer (HBSS with Ca^2+ and Mg^2+ and containing 20 mM Hepes and 0.3% fatty-acid free human serum albumin) was added to each well and incubation continued for 1 hour at 37° C. 10 μl of test compounds in 2.5% DMSO were added to the cells and incubation continued at room temperature for 30 minutes. Cells were then stimulated by the addition of 10 nM LPA and intracellular Ca^2+ measured using the Flexstation 3 (Molecular Devices). IC50s were determined using Graphpad prism analysis of drug titration curves.

Human LPA3 = target: T2, Human LPA3 (Homo sapiens, UniProt Q9UBY5); assay: LPA3 calcium flux assay; conditions: human LPA3 expressing CHO cells; stimulated with 10 nM LPA; read-out: Ca Flux LPA3 IC50
T2 construct: The full-length cDNA fragment for human LPA3 is obtained by PCR from the vector; expressed in transfected cells; host or cells: CHO
T2 sequence (Q9UBY5 1-353): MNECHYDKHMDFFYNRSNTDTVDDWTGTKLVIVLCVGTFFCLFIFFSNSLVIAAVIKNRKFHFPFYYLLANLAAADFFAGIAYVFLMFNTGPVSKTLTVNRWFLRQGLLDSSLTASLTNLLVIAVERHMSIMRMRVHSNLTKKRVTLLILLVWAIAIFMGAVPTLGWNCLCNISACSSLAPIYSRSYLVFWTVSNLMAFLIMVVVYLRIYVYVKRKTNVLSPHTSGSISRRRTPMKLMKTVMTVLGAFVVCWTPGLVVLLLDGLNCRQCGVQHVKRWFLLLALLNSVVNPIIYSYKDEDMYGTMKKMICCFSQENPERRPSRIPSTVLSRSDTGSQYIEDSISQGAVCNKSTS
Experimental: Establishment of a CHO Cell Line Stably Expressing Human LPA3
A vector containing the human LPA3 receptor cDNA is obtained from the Missouri S&T cDNA Resource Center (www.cdna.org). The full-length cDNA fragment for human LPA3 is obtained by PCR from the vector. The nucleotide sequence of the cloned human LPA3 is determined by sequencing and is confirmed to be identical to the published human LPA3 sequence (NCBI accession number NM_012152). The cDNA is cloned into the pcDNA5 pcDNA5/FRT expression plasmid and is transfected in CHO cells using lipofectamine 2000 (Invitrogen Corp., USA). Clones stably expressing human LPA3 are selected using hygromycin and identified as cells that show Ca-influx in response to LPA.
as §1, §2

T1 sequence (Q92633 whole entry, the tested form may be a part): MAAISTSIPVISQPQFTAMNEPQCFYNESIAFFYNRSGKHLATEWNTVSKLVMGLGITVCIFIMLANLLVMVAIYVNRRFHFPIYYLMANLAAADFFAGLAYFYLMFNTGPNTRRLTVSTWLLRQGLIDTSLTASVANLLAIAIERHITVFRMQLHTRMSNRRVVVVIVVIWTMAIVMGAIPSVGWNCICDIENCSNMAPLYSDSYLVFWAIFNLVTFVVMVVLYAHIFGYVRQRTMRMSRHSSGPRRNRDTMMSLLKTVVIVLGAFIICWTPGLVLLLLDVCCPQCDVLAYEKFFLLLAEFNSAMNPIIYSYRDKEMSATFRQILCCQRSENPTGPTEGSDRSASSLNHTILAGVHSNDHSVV

SMILES	EC50 (Human LPA1 [1]) [nM]	IC50 (Human LPA1 [2]) [nM]	IC50 (Human LPA3) [nM]
Cc1nsc(-c2ccc(-c3ccc(CC(=O)O)cc3)cc2)c1NC(=O)O[C@H](C)c1ccccc1Cl [Compound 20]	50 to 500	< 50	> 500
Cc1nnn(-c2ccc(-c3ccc(C4(C(=O)O)CC4)cc3)cc2)c1NC(=O)O[C@H](C)c1ccccc1 [Compound 65]	< 50	< 50	> 500

Reference: US8975235B2, “Lysophosphatidic acid receptor antagonists” (InterMune, Inc., priority 2011, dated 2015)
